Measurements: US20170258787A1, “PROPHYLACTIC AND/OR THERAPEUTIC AGENT FOR BEHAVIORAL AND PSYCHOLOGICAL SYMPTOMS ASSOCIATED WITH NEURODEGENERATIVE DISEASE OR IMPULSIVE SYMPTOMS ASSOCIATED WITH MENTAL DISEASE CONTAINING BREXPIPRAZOLE OR SALT THEREOF” (OTSUKA PHARMACEUTICAL CO., LTD., priority 2012, published 2017)

Key:
schizophrenia patients = settings: Psychiatric Services 2001, 52:1510-14; cited from earlier work
[1] = test system: mouse having a Disc1 L100P point mutation; settings: Neuron 54(3): 387-402, 2007; cited from earlier work
[2] = test system: patients with highly severe Alzheimer's disease; settings: 12 weeks, Alzheimer's disease patients in nursing home, cited from earlier work
Tg2576 mouse = assay: Resident-Intruder test (aggression, biting); type: in vivo; settings: 0.03 mg/kg oral 1 hr before test
From the text: Animal: Tg2576 mice (male) having a Swedish APP mutation (K670N, M671L) and non-Tg mice (male) free of the same genetic mutation as a control were purchased from Taconic, and bred and aged until 5- to 6-month-old of age. During the breeding, isolated housing was applied. Measurement method: For the experiment, Tg2576 or non-Tg mouse [Resident] and A/J mouse [Intruder] almost free of aggression were used. Resident formed a sufficient territory by isolated housing for 14 days. […] As the aggressive behavior, biting was noted, and the time necessary for the first biting and total number of biting for 10 min were measured. The measurement was performed within the dark period phase 1 (4 hr) when the amount of locomotor activity of the mouse is the highest. Tg2576 (48 mice) and non-Tg mice (10 mice) were subjected to a Resident-Intruder test in advance, and promotion of the to aggression of the Tg2576 mouse was confirmed. Five Tg2576 mice free of aggression were excluded and 43 mice were used for the test. The mice were grouped into 3 groups in such manner as makes the mean and variance of the groups equal, using the time necessary for the first attack and total number of biting for 10 min, which were obtained in the preliminary test, as indices (total 43 mice). […]

Wistar rat [3] = assay: Measurement of alcohol intake by limited access paradigm; type: in vivo
Experimental: Measurement method: An impulsive behavior of cravings for alcohol was evaluated as follows by reference to the method of Sinclair et al. (Alcohol 1992; 9:441-44 and Alcohol & Alcoholism 2001; 36:2-10). First, Wistar rat (male) was allowed to freely take 10% aqueous ethanol solution and tap water for several weeks under isolated housing. After stabilization of ethanol intake by each animal, a limited access paradigm allowing ethanol intake for only 1 hr per day was started, and the ethanol intake for 1 hr was measured every day. Ethanol intake was calculated from the results of the weight measurement of the water supply bottle filled with 10% aqueous ethanol solution immediately before the start of the limited access paradigm and immediately after completion thereof. An animal which was showing over 0.4 g/kg/hr in terms of 100% ethanol as an average ethanol intake in the limited access paradigm for 4 days immediately before drug evaluation was used. The limited access paradigm test was performed between 9:00 AM-12:00 PM. Brexpiprazole was suspended in distilled water containing 5% gum arabic. […] An average ethanol intake in the limited access paradigm of 4 days immediately before drug evaluation and an average ethanol intake in the limited access paradigm of 4 days after drug administration were analyzed by the 2-tailed paired t-test.

c-fos-GFP mouse = assay: Measurement of nerve activation pattern (GFP signal) of c-fos-GFP mouse; type: in vivo; settings: brain isolated 3 hr later
Experimental: Measurement method: c-fos is an indirect marker for neuronal activity, which is expressed on activation of nerve cell. Using a transgenic mouse introduced with a green fluorescent protein (GFP) gene at the downstream of the promoter of c-fos gene (c-fos-GFP mouse), the nerve activation pattern in the brain was measured. Brexpiprazole or vehicle was administered, and the brain was isolated 3 hr later. GFP signals from serial sections of the whole brain were stored in a computer using a two-photon microscope and, after three-dimensional reconstruction, the nerve activation patterns of brexpiprazole (OPC-34712) and vehicle groups were quantitatively analyzed using the brain map information. Brexpiprazole was suspended in distilled water containing 5% gum arabic, and orally administered to c-fos-GFP mouse. Five to seven mice were used. The dose of brexpiprazole was 0.3 and 1 mg/kg. The significance level of the test was set to 5%. In the comparison between groups in each brain region, Tukey's multiple comparison test was conducted.

APPSL-Tg mouse = assay: Measurement of mouse circadian rhythm locomotor activity (spontaneous locomotor activity in dark period); type: in vivo; settings: for spontaneous locomotor activity, dark period III (3:00-7:00), Night 1 / spontaneous locomotor activity, dark period III (3:00-7:00), Night 2 / spontaneous locomotor activity, dark period III (3:00-7:00), Night 3: APPSL-Tg mice
From the text: 1) Measurement of Mouse Circadian Rhythm Locomotor Activity
(§1) Animal: APPSL-Tg mouse (male) having Swedish and London APP mutations, and non-Tg mouse (male) free of a genetic mutation as a control were generated (Neuroscience Letters 2010; 469:273-277), bred in a breeding room, and used after they became 6-month-old. During the breeding, isolated housing was applied.
(§2) Measurement method: SUPERMEX manufactured by Muromachi Kikai Co., Ltd. was used for the measurement of circadian rhythm locomotor activity. The mouse was placed in an individual cage, and the spontaneous locomotor activity of the mouse was measured for 3 days (total 62.5 hr) under free-feeding, drinking water conditions. In this apparatus, a passive infrared sensor detects infrared rays emitted from the mouse, and the number of transpositions is counted. The measured values are totaled every 30 min, and automatically totaled using a specialized software CompACT AMS. The test was performed in a soundproof chamber, so that the spontaneous locomotor activity of the mouse would not be influenced. The lighting time in the soundproof chamber was set to 7:00-19:00 as in the breeding room.
The amounts of spontaneous locomotor activity of non-Tg mice and APPSL-Tg mice during the dark period of 19:00-7:00 were measured in advance. The mice were grouped in such manner as makes the mean and variance of the groups equal, using the body weight and the dark period spontaneous locomotor activity as indices.
Brexpiprazole was dissolved in distilled water containing 5% gum arabic, 5% gum arabic distilled water was used for the vehicle group, and they were orally administered to each mouse.
For 3 days, brexpiprazole and the vehicle were administered during the period of 17:30-18:30. After the administration, the measurement of the amount of locomotor activity was rapidly started or continued.
The statistical test was a two-sided test, and the significance level of the test was set to 5%. As a statistical software, SAS (R9.1, SAS Institute Japan Ltd.) was used.
Dunnett's test was performed based on the repeated measures ANOVA using a mixed model for Night 1-Night 3 at every phase I, II or III of the dark period. Furthermore, Dunnett's test was performed for every dark period and Night.

non-Tg mouse = assay: Measurement of mouse circadian rhythm locomotor activity in control mice; type: in vivo
From the text: as §1, §2
Brexpiprazole was administered to APPSL-Tg mouse immediately before the dark period (17:30-18:30) at a dose of 0.01 and 0.03 mg/kg, and the measurement of the spontaneous locomotor activity was started. […]

Wistar rat [4] = assay: Spontaneous locomotor activity under novel environments; type: in vivo; settings: 0.1 mg/kg, data not indicated
Wistar rat [5] = settings: reported in Alcohol & Alcoholism 2001; 36:2-10; cited from earlier work
[6] = 0.01 mg/kg oral, n = 6, mean ± standard error
[7] = 0.03 mg/kg oral, n = 5, mean ± standard error

In the case of O=C(CCCN1CCC(O)(c2ccc(Cl)cc2)CC1)c1ccc(F)cc1 [haloperidol], the “hostility (positive scale of PANSS)” value (schizophrenia patients) is given as “aggravated hostility” and the schizophrenia-like behaviors [1] is given as “reduced the schizophrenia-like behaviors”.

In the case of COc1cc2c(cc1OC)C(=O)C(CC1CCN(Cc3ccccc3)CC1)C2 (stereo not drawn) [donepezil], the “NPI (Neuropsychiatric Inventory) score vs placebo” value ([2]; p value 0.95) is given as “no statistically significant difference” and the “CMAI (Cohen-Mansfield Agitation Inventory) score vs placebo” value ([2]; p value 0.98) is given as “no statistically significant difference”.

In the case of Cc1nc2n(c(=O)c1CCN1CCC(c3noc4cc(F)ccc34)CC1)CCCC2 [risperidone], the “hostility (positive scale of PANSS)” value (schizophrenia patients) is listed as “aggravated hostility”.

With O=c1ccc2ccc(OCCCCN3CCN(c4cccc5sccc45)CC3)cc2[nH]1 [brexpiprazole, 7-[4-(4-benzo[b]thiophen-4-yl-piperazin-1-yl)butoxy]-1H-quinolin-2-one] the “time necessary for the first biting compared to the vehicle group” value (Tg2576 mouse; P<0.05) was “significantly elongated”, the “number of biting for 10 min compared to the vehicle group” value (Tg2576 mouse; P=0.0709) was “tended to show a decreased number of biting” and the “ethanol intake observed individually” value (Wistar rat [3]; 0.1 mg/kg oral for 4 days, five rats) was “all rats showed a decrease in the ethanol intake”. The “average ethanol intake in the limited access paradigm” value (Wistar rat [3]; 0.1 mg/kg oral once per day for 4 days, 1 hr before, vs 4 days before drug) was “statistically significant suppression of ethanol intake”, the “GFP signal in the medial prefrontal cortex (ACA, PL, IL) relative to vehicle” value (c-fos-GFP mouse; 0.3 mg/kg oral) was “significantly increased GFP signal” and the “GFP signal in the medial prefrontal cortex (ACA, PL, IL) relative to vehicle” value (c-fos-GFP mouse; 1 mg/kg oral) was “significantly increased GFP signal”. For the same compound, the “spontaneous locomotor activity at Night 3, dark period phase III, vs vehicle (in words)” value (APPSL-Tg mouse; 0.01 mg/kg oral, P<0.01) was “significantly suppressed the spontaneous locomotor activity at Night 3”, the “spontaneous locomotor activity in dark period phase III compared to the vehicle group (Night 1-Night 3)” value (APPSL-Tg mouse; 0.01 mg/kg oral, P<0.05) was “significantly suppress the spontaneous locomotor activity” and the “spontaneous locomotor activity in dark period phase III compared to the vehicle group (Night 1-Night 3)” value (APPSL-Tg mouse; 0.03 mg/kg oral, P=0.050) was “significantly suppress the spontaneous locomotor activity”. The “spontaneous locomotor activity at Night 3, dark period phase III, vs vehicle (in words)” value (APPSL-Tg mouse; 0.03 mg/kg oral, P=0.068) was “tended to suppress at Night 3”, the “spontaneous locomotor activity, dark period III (3:00-7:00), Night 1” value (APPSL-Tg mouse; [6]) was 7256 and the “spontaneous locomotor activity, dark period III (3:00-7:00), Night 2” value (APPSL-Tg mouse; [6]) was 6466. For the same compound, the “spontaneous locomotor activity, dark period III (3:00-7:00), Night 3” value (APPSL-Tg mouse; 0.01 mg/kg oral, n = 6, mean ± standard error, P < 0.01 vs vehicle) was 4928, the “spontaneous locomotor activity, dark period III (3:00-7:00), Night 1” value (APPSL-Tg mouse; [7]) was 6014 and the “spontaneous locomotor activity, dark period III (3:00-7:00), Night 2” value (APPSL-Tg mouse; [7]) was 5443. The “spontaneous locomotor activity, dark period III (3:00-7:00), Night 3” value (APPSL-Tg mouse; 0.03 mg/kg oral, n = 5, mean ± standard error, P = 0.068 vs vehicle) was 6845, the “spontaneous locomotor activity in dark period” value (non-Tg mouse) was “did not decrease the spontaneous locomotor activity” and the “influence on spontaneous locomotor activity under novel environments” value (Wistar rat [4]) was “does not influence spontaneous locomotor activity”.

For C=C1CC[C@@]2(O)[C@H]3Cc4ccc(O)c5c4[C@@]2(CCN3CC2CC2)[C@H]1O5 [Nalmefene], the “effect in the limited access paradigm evaluation system” value (Wistar rat [5]) is given as “shows effect in this evaluation system”.
